The source of these data is patent US12187767B2 (priority 2021, dated 2025).

Entries after “also recorded” stand apart in the source; their conditions may differ. Read-outs that look alike come from different tables or passages of the source.

Data set [1] relates to MCF-7 cells. As to the kind of experiment: Complement-mediated cytotoxicity (anti-CXCR4 antibody plus NHS or NIS, trypan blue exclusion). Format: cell-based. The settings on record: 280 nM PEG-SMRwt-Clu or 560 nM SMRwt-CPP. As for the experimental part:
(§1) Therefore, it was of interest to see whether SMR peptide driven mortalin sequestration and functional disruption increases cell sensitivity to complement-induced cell death. Accordingly, MCF-7, MDA-MB-231, and K562 cells were treated with 280 nM PEG-SMRwt-Clu peptide or 560 nM SMRwt-CPP peptide alone for 60 min at 37° C., followed by treatment with 1 μg/mL anti-CXCR4 antibody and 50 μL normal human serum (NHS; as a source of complement) or normal heat-inactivated (human) serum (NIS) for an additional 60 min at 37° C. (FIG. 8). PEG-SMRmut-Clu peptide and SMRmut-CPP peptide were used as negative controls. The percentage of stained (dead) cells was determined by trypan blue exclusion and is representative of 3 independent experiments.
(§2) To further validate the ability of mortalin neutralization to render or enhance complement-mediated cytotoxicity, MCF-7, MDA-MB-231 and K562 cells were transfected with vectors expressing mortalin siRNAs or negative control siRNAs, incubated for 72 hours at 37° C., treated with anti-CXCR4 antibody for 30 minutes at 4° C. followed by incubation with either NHS or NIS for 60 minutes at 37° C.

The subject of data set [2] is K562 cells. The description is as above. The settings on record: 280 nM PEG-SMRwt-Clu or 560 nM SMRwt-CPP. Format: cell-based. As to the method: as §1, §2
The subject of data set [3] is MDA-MB-231 cells. Described as above. Type of data set: cell-based. The settings on record: 280 nM PEG-SMRwt-Clu or 560 nM SMRwt-CPP. As to the method:
as §1, §2

The test system of data set [4] is MCF-7, MDA-MB-231 and K562 cells. The settings on record: previously shown (Huang et al., Oncotarget (2017)); cited from earlier work.
The subject of data set [5] is MCF-7 cells. As to the kind of experiment: NanoSight nanoparticle tracking analysis (NTA) of released EVs. Format: cell-based. The settings on record: MCF-7 cells treated for 48 hr; untreated control 5.16×10^9 particles/ml. As for the experimental part:
(§3) 1.3. EV isolation and purification. EVs were isolated from cells by differential centrifugation as previously described (Ali SA. et al., 2010). Untreated cells were used as a control. Briefly, the above treated and untreated cell culture supernatants were centrifuged at 400×g for 10 minutes. The supernatants were transferred to a clear tube and centrifuged at 10,000×g for 30 minutes. The supernatants from the second spin were […] ultracentrifuged at 200,000×g for 2 hours to pellet the EVs. Finally, the EV pellets were re-suspended with PBS and stored at 4° C. until used for analysis.
(§4) 1.5. EV nanoparticle tracking analysis (NTA). Analysis of absolute size distribution of EVs was performed using NanoSight LM10 with NTA2.3 (NanoSight Ltd., Minton Park, UK). EV particles were automatically tracked and sized based on Brownian motion and the diffusion coefficient. After isolation, the untreated and treated EVs were re-suspended in 0.5 mL of PBS. Control medium and filtered PBS were used as controls in this technique. The NTA measurement conditions were: temperature=21.0+/−0.5° C.; viscosity=0.99+/−0.01 cP; frames per second=25; measurement time=30 s. The detection threshold was similar in all samples. […]

In data set [6] the test system is MDA-MB-231 cells. The description is as above. Type of data set: cell-based. The settings on record: MDA-MB-231 cells treated for 48 hr; control media 4.7×10^9 particles/ml. As for the experimental part: as §3, §4
Data set [7] concerns K562, MCF-7 and MDA-MB-231 cultures. As to the kind of experiment: Complement-mediated cytotoxicity, overall statements across cell lines. Type of data set: cell-based. The settings on record: peptide, then anti-CXCR4 antibody and NHS. As for the experimental part: as §1, §2
The test system of data set [8] is MCF-7, MDA-MB-231 and K562 cells. As to the kind of experiment: Exosome/EV release, overall statements across cell lines (AchE, NanoSight, Western blot). Type of data set: cell-based. As for the experimental part: Acetylcholinesterase (AchE) assays, NanoSight analysis and Western blot analysis were performed to characterize EVs released from MCF-7 and MDA-MB-231 cells treated for 48 hr with the various peptides.
To further examine the underlying mechanism for blocking exosome release, a study was extended to examine the effects of the SMRwt peptides, PEG-SMRwt-Clu peptide and SMRwt-CPP peptide, and the mortalin inhibitors MKT-077, Omeprazole, and DMA on exosome release. In particular, acetylcholinesterase (AchE) assays, NanoSight analysis and Western blot analysis were performed to characterize EVs released from MCF-7, MDA-MB-231 and K562 cells. Panels A, B and C depict the relative numbers of EVs released as a function of time as measured by an acetylcholinesterase (AchE) assay in MCF-7 cells (FIG. 6, Panel A); MDA-MB-231 cells (FIG. 6, Panel B); and K562 cells (FIG. 6, Panel C).
On the technique in general: In western blotting, separated proteins are transferred to a membrane and probed.

In data set [9] the test system is MCF-7 cells. In words: Western blot analysis of EV protein content. The settings on record: 48 hours treatment. Format: cell-based. As for the experimental part: as §3
(§5) 1.6. Western blot analysis. EVs were isolated from culture supernatants as described above. Protein concentrations were determined by measuring absorbance at 280 nm (Nanodrop 2000). Protein samples were denatured in SDS-PAGE sample buffer by heating at 95° C. for 15 min. Criterion TGX Precast Gels (4-20% Bio-Rad, Richmond, CA) were used to separate the proteins and blotted as previously described (Huang MB. et al 2004). Blots were incubated with the primary antibodies, anti-CD63 and anti-Alix, followed by goat or rabbit anti-Ig secondary antibodies. Specific bands were detected using ECL chemiluminescent substrate (Santa Cruz Biotechnology, Santa Cruz, CA) and visualized on the ImageQuant LAS 4000 imaging system (GE Healthcare, Piscataway, NJ 08854).
(§6) Western blot analysis was used to examine the effects of the SMRwt peptides, PEG-SMRwt-Clu peptide and SMRwt-CPP peptide, and the mortalin inhibitors MKT-077, Omeprazole, and DMA on EV protein content in MCF-7, MDA-MB-231 and K562 cells. Negative control treatments included the PEG-SMRmut-Clu peptide, […] (SEQ ID NO: 49) and the SMRmut-CPP peptide, […] (SEQ ID NO: 50). EVs were isolated from all treated and untreated cell lines screened. Western blot analyses were carried out to evaluate the expression levels of the exosomal proteins, Alix, mortalin, and vimentin in MCF-7 cells (FIG. 7, Panel A, left sub-panel), MDA-MB-231 cells (FIG. 7, Panel A, middle sub-panel), and K562 cells (FIG. 7, Panel A, right sub-panel).

Data set [10] relates to K562 cells. As to the kind of experiment: Western blot analysis of EV protein content. Format: cell-based. The settings on record: 48 hours treatment. As for the experimental part: as §3, §5, §6
In data set [11] the test system is MDA-MB-231 cells. In words: Western blot analysis of EV protein content. Format: cell-based. To be noted: 48 hours treatment. As to the method: as §3, §5, §6
Data set [12] relates to MCF-7 cells. As to the kind of experiment: Acetylcholinesterase (AchE) assay of exosome/EV release. Format: cell-based. As to the method: as §3
(§7) 1.4. Exosome characterization by acetylcholinesterase (AchE) assay. Purified EVs were quantitated by measurement of AchE as described (Ellman et al., 1961). Briefly, a 100 mM dithibionitrobenzoic (DTNB) solution was prepared for use as a stock color indicator, and a 28.9 mg/mL acetylthiocholine iodide in PBS solution was prepared as a stock substrate. The stock substrate stock can be stored at −20° C. up to one month, while the color indicator can be stored at 4° C. for two weeks. A working solution was prepared by mixing 10 mL of PBS with 200 μL of Substrate and 500 μl of DTNB. 50 μL of each exosome sample was transferred to 96 well microtitre plates, and a standard curve was prepared using AchE from 0.98 mU/mL to 2000 mU/mL. After 50 μL of standards were added into separate wells, 200 μL of the working solution was added to all wells. After 20 min incubation, AchE activity was measured at 450 nm using a SpectroMax M5 fluorimeter.

Data set [13] has as its system MDA-MB-231 cells. The data set is described as above. Type of data set: cell-based. As to the method: as §3, §7
[14] abbreviates: then anti-CXCR4 antibody and NHS.

Take “VGFPVAAVGFPVHPLSKHPYWSQP (SEQ ID NO: 47) [PEG-SMRwt-Clu]”: the figures for the “cell death under complement-negative conditions” value in the data set on MCF-7 cells [1] (60 min), in the data set on K562 cells [2] (60 min) and with MDA-MB-231 cells [3] (60 min) were 2.1%, 4.3% and 3.6%, respectively. Also, the “cell death under complement-positive conditions” value in the data set on MCF-7 cells [1] (setting [14]) turned out to be 26%; in the data set with K562 cells [2] (setting [14]), 55%; with MDA-MB-231 cells [3] (setting [14]) it was 76%. The exosome release result was “block exosome release” in data set [4]; “blocks exosome release” in [8] (MCF-7 and MDA-MB-231 cells treated for 48 hr). Moreover, the “number of particles (NTA)” value is on record as 3.28×10^8 particles/mL with MCF-7 cells [5] and 6.8×10^8 particles/mL in the data set on MDA-MB-231 cells [6]. In addition, the “complement-mediated cytotoxicity / cell death in the presence of NHS” value in [7] is listed as “induce complement-mediated cytotoxicity”. In data set [8] (MCF-7, MDA-MB-231 and K562 cells, five days at 37° C., AchE assay), the “exosome/EV release (number of EVs released)” value was “reduced the number of EVs released; also recorded: blocked exosome release”. The “Mortalin expression in EVs” value in the data set with MCF-7 cells [9], in the data set with K562 cells [10] and in the data set on MDA-MB-231 cells [11] was “significantly decreased” each time. For the same sequence, the “Alix expression in EVs” value in the data set with MCF-7 cells [9] (relative to negative controls), in the data set with K562 cells [10] and with MDA-MB-231 cells [11] was “significantly decreased” each time. The “Vimentin expression in EVs” value in the data set with MCF-7 cells [9] (relative to negative controls) and in the data set on MDA-MB-231 cells [11] was “significantly decreased” throughout. For the same sequence, the “AchE activity in EVs” value is given as 41.95 mU/mL in the data set with MCF-7 cells [12] (MCF-7 cells treated for 48 hr, control EVs 113.49 mU/mL) and 66.77 mU/mL in the data set with MDA-MB-231 cells [13] (MDA-MB-231 cells treated for 48 hr, control EVs 118.48 mU/mL). Besides, the “average AChE concentrations throughout days 1 to day 5” value with MCF-7 cells [12] (MCF-7 cells, five-day treatment at 37° C.) came out at 31 mU/mL. Also, the “average AChE concentration levels throughout day 1 to 5” value with MDA-MB-231 cells [13] (MDA-MB-231 cells, five-day treatment at 37° C.) came out at 42 mU/mL.
